In experiment [1] the target is T1, HK-isletGK chimera: N-terminal 455 amino acids of rat hexokinase I fused to rat islet glucokinase, SEQ ID NO:12 (DNA SEQ ID NO:11) (Rattus norvegicus, UniProt P17712).
T1 construct: expressed in transfected cells; host or cells: human embryonic kidney 293 cells, crude extract
T1 sequence (P17712 with tags, fused parts or gaps): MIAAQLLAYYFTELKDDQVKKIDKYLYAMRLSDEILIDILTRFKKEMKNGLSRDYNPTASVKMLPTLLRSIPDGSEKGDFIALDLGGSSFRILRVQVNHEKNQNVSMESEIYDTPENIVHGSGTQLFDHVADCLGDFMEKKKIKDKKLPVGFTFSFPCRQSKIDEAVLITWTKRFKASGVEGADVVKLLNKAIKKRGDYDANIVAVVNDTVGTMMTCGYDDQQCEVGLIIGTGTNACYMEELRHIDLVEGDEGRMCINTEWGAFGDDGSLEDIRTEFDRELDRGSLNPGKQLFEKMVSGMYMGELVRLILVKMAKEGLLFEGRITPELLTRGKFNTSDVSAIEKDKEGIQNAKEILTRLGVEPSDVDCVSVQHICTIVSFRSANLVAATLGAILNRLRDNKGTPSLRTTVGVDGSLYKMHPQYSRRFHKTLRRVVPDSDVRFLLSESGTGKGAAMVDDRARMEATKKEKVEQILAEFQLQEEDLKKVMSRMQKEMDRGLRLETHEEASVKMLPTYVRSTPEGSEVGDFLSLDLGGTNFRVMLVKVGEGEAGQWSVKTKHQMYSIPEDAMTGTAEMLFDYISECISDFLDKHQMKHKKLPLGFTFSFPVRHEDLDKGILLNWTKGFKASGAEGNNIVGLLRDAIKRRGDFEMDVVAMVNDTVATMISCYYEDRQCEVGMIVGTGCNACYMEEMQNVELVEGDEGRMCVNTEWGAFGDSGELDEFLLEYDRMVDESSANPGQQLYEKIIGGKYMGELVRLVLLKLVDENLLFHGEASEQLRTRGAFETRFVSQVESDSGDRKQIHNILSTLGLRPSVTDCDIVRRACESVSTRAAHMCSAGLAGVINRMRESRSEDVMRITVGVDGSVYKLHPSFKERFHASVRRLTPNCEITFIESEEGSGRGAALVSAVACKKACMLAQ
Kind of experiment: Glucose phosphorylating activity in extracts of transiently transfected 293 cells, with and without G6P. Type of experiment: biochemical. As to conditions: 10 mM G6P, 20 mM glucose, 293 cell extracts. From the text:
(§1) For transient transfection studies, cDNAs encoding chimeric hexokinase/glucokinase proteins consisting of the N-terminal domain of hexokinase I (amino acids 1-455) linked in frame to either the full length liver isoform of glucokinase (HK-liverGK, SEQ ID NO:8) or the islet isoform of glucokinase (HK-isletGK, SEQ ID NO:11) were cloned into pAC.CMVpLpA.
(§2) Plasmids containing DNA encoding either intact islet glucokinase, hexokinase I or one of the two hexokinase/glucokinase chimeras were introduced into the human embryonic kidney cell line 293, using Ca2 PO4 co-precipitation. After incubation with the plasmid DNA, cells were cultured for an additional 48 hours. Cells were harvested and crude extracts prepared for assay of glucose phosphorylating activity, using a radioisotopic assay that monitors conversion of U-^14 C glucose to U^14 C glucose-6-phosphate.
(§3) Assays were performed at 3 and 20 mM glucose. At the lower glucose concentration, hexokinase activity is maximal while glucokinase activity is very low. […] The assay was also performed in the presence and absence of 10 mM unlabeled glucose-6-phosphate (G6P).

Experiment [2] concerns the target T2, HK-liverGK chimera: N-terminal 455 amino acids of rat hexokinase I fused to rat liver glucokinase, SEQ ID NO:9 (DNA SEQ ID NO:8) (Rattus norvegicus, UniProt P17712).
T2 construct: expressed in transfected cells; host or cells: human embryonic kidney 293 cells, crude extract
T2 sequence (P17712 with tags, fused parts or gaps isoform P17712-3): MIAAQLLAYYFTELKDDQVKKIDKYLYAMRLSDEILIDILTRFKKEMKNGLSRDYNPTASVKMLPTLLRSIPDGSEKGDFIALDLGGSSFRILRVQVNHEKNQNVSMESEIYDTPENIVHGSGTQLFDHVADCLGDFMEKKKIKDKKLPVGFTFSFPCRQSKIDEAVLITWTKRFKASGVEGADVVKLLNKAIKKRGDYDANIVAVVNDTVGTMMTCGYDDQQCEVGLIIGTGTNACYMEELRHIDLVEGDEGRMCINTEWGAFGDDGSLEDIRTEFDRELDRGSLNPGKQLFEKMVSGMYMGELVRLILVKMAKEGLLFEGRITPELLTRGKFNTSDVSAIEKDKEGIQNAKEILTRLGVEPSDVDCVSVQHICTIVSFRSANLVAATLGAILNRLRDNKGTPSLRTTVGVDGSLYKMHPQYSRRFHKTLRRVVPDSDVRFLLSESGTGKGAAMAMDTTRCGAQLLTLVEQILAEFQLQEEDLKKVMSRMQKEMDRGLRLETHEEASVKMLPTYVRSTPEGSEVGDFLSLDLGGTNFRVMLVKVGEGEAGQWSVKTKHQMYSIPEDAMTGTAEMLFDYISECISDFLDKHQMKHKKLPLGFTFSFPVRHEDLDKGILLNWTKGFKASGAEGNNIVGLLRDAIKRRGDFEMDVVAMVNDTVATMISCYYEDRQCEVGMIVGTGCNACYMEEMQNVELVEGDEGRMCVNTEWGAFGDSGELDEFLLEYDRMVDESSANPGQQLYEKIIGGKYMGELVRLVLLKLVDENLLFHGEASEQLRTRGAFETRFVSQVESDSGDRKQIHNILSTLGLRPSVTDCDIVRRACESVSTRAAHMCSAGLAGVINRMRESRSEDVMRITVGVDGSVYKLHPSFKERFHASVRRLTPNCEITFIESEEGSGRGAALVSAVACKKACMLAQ
The description is as above. Type of experiment: biochemical. As to conditions: 10 mM G6P, 20 mM glucose, 293 cell extracts.
Excerpt: as §1, §2, §3

Experiment [3] has as its target T3, native (wild type) islet glucokinase, overexpressed (Rattus norvegicus, UniProt P17712).
T3 construct: Plasmids containing DNA encoding either intact islet glucokinase, hexokinase I; expressed in transfected cells; host or cells: human embryonic kidney 293 cells, crude extract
T3 sequence (P17712 1-465): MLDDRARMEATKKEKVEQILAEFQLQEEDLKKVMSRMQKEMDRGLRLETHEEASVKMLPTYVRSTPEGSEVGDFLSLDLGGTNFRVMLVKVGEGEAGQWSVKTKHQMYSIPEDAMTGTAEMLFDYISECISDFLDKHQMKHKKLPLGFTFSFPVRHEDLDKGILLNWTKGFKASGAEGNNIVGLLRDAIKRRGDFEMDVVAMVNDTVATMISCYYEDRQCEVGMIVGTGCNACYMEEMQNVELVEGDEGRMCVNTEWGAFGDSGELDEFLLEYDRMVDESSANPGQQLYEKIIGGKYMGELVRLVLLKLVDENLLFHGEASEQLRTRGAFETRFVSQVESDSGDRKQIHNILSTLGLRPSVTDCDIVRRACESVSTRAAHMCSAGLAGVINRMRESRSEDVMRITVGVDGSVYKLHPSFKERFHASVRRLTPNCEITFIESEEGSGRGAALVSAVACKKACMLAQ
Described as above. Type of experiment: biochemical. The conditions noted are these: 10 mM G6P, 293 cell extracts. As for the experimental part: as §2, with “glucose-6-phosphate. The extract buffer and assay procedure have previously been described in detail (Kuwajima, et al., 1986; Becker, et al., 1994; each incorporated herein by reference).” for “glucose-6-phosphate.”
Assays were performed at 3 and 20 mM glucose. At the lower glucose concentration, hexokinase activity is maximal while glucokinase activity is very low. At the higher concentration, glucokinase activity is increased to near maximal. The assay was also performed in the presence and absence of 10 mM unlabeled glucose-6-phosphate (G6P). In the presence of G6P, low Km hexokinases are inhibited, but glucokinase is not.

Experiment [4] concerns the target glucokinase (GK, hexokinase IV). As to conditions: cited from earlier work.
The target of experiment [5] is low Km hexokinases I, II and III (HKI-III). The conditions noted are these: cited from earlier work.
The target in experiment [6] is T4, native hexokinase I, overexpressed (Rattus norvegicus, UniProt P05708).
T4 sequence (P05708 1-918): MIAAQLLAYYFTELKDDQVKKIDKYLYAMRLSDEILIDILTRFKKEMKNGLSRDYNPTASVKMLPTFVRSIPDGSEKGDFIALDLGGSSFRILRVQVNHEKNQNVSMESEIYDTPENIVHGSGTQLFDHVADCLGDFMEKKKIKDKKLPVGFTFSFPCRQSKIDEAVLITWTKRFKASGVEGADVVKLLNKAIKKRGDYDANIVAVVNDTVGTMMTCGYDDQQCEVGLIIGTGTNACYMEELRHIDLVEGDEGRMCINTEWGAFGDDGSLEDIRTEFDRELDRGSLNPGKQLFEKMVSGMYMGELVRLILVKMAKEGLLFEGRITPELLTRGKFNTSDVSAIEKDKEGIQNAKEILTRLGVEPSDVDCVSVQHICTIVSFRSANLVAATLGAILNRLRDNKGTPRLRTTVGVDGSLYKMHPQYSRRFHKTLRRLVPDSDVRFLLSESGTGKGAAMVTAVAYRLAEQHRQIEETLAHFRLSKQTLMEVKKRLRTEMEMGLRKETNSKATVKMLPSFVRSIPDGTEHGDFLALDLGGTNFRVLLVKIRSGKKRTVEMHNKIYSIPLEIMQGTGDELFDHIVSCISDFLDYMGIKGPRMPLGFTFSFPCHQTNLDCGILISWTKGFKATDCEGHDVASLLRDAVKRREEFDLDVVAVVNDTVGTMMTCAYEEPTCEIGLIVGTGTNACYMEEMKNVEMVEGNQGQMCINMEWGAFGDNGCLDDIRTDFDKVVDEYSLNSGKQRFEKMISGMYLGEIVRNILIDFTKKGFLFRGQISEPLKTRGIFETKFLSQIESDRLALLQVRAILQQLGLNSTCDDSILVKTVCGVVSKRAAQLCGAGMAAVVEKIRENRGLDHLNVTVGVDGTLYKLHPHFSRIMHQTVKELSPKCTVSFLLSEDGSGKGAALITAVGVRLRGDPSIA
As to conditions: typically seen (Becker et al., 1994; 1996); cited from earlier work.

Setting [7] is: running text (Wilson, 1985), read-out: Km for glucose.

Usually Ki stands for a dissociation constant, usually derived from enzyme kinetics or from competition with a known ligand. On to `O=P(O)(O)OC[C@H]1OC(O)[C@H](O)[C@@H](O)[C@@H]1O` (stereo partly drawn) [glucose-6-phosphate], for which the “inhibition of glucose phosphorylating activity by G6P” value is given as “approximately 40%” in experiment [1], “approximately 20%” in experiment [2] and 90% in experiment [6]. Further, in experiment [3], the “effect of glucose-6-phosphate on glucose phosphorylating activity” value is reported as “no significant effect”. Further, the inhibition constant Ki is 60 mM in experiment [4] (Table 1, GK, read-out: Ki G-6-P) and 0.2 to 0.9 mM in experiment [5] (Table 1, HKI-III, read-out: Ki G-6-P). Further, the “glucose-6-phosphate concentration required for appreciable inhibition” value in experiment [4] is given as greater than 10 mM.
By Km is commonly meant the substrate concentration at which the rate is half of its maximum. For `OC[C@H]1OC(O)[C@H](O)[C@@H](O)[C@@H]1O` (stereo partly drawn) [glucose], the Km in experiment [4] (setting [7]) was 6 to 8 mM; in experiment [5] (setting [7]) it was 0.01 to 0.05 mM.

The values above are taken from patent US5891717A, “Methods and compositions for inhibiting hexokinase” (priority 1996, dated 1999).
